Experiments:
Conditions in all cases: 48 h
SEM cells [1] = test: AUC of viability dose-response curve (% viability x log10 dose units); higher = less sensitive
Procedure, shortened: (§1)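 Library compounds in DMSO were applied for 48 h at 37°C at 11 threefold doses (47 μM to 0.79 nM) to medium-adapted leukemia cells in 1536-well plates holding 500 or 1000 cells/well. Luminescence from CellTiter-Glo One was normalised plate by plate against DMSO and cell-free wells. Area under the curve came from trapezoidal integration of a log-logistic fit, after scaling curves that rose above full viability and discarding those that failed quality control. The fit had four parameters and used log10 doses.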

NOMO1 [2] = test: as above
Procedure, shortened: as §1

P12-Ichikawa [3] = test: as above
Procedure, shortened: as §1

SEM cells [4] = test: cell viability relative to DMSO control; higher = less cytotoxic
Procedure, shortened: (§2)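 NOMO1 or SEM (500 cells/well) or P12-Ichikawa (1000 cells/well) leukemia cells were adapted for at least four passages in each medium. They were seeded in 1536-well plates (5 μl) and pin-dosed with library compounds in DMSO over an 11-point threefold series, 47 μM to 0.79 nM. CellTiter-Glo One luminescence was read after 48 h at 37°C. Viability is the per-plate percentage relative to DMSO wells, with cell-free wells as background.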

NOMO1 [5] = test: as above
Procedure, shortened: as §2

P12-Ichikawa [6] = test: as above
Procedure, shortened: as §2

O=C(CCc1ccc(O)cc1)c1c(O)cc(O)cc1O
AUC of viability dose-response curve
Conditions	NOMO1 [2]	P12-Ichikawa [3]	SEM cells [1]
HPLM + 10% dialyzed FBS	457	459	433
RPMI 5 mM glucose + 10% FBS	460	467	438
RPMI 5 mM glucose + 10% dialyzed FBS	455	459	434

cell viability [%]
Conditions	NOMO1 [5]	P12-Ichikawa [6]	SEM cells [4]
HPLM + 10% dialyzed FBS, 0.000781 µM	84.2	94.5	74
HPLM + 10% dialyzed FBS, 0.00234 µM	95.5	106	79.7
HPLM + 10% dialyzed FBS, 0.00702 µM	108	104	92
HPLM + 10% dialyzed FBS, 0.0211 µM	112	99.5	95.5
HPLM + 10% dialyzed FBS, 0.0632 µM	93.8	103	89.1
HPLM + 10% dialyzed FBS, 0.19 µM	104	111	95.9
HPLM + 10% dialyzed FBS, 0.569 µM	100	110	115
HPLM + 10% dialyzed FBS, 1.71 µM	125	116	94.5
HPLM + 10% dialyzed FBS, 5.12 µM	116	112	57
HPLM + 10% dialyzed FBS, 15.4 µM	93	103	107
HPLM + 10% dialyzed FBS, 46.1 µM	36.8	110	100
RPMI 5 mM glucose + 10% FBS, 0.000781 µM	91.5	89.5	80.8
RPMI 5 mM glucose + 10% FBS, 0.00234 µM	98.6	91	102
RPMI 5 mM glucose + 10% FBS, 0.00702 µM	105	100	102
RPMI 5 mM glucose + 10% FBS, 0.0211 µM	102	103	85.6
RPMI 5 mM glucose + 10% FBS, 0.0632 µM	98	90.2	86.3
RPMI 5 mM glucose + 10% FBS, 0.19 µM	99.5	101	97.7
RPMI 5 mM glucose + 10% FBS, 0.569 µM	96.1	106	105
RPMI 5 mM glucose + 10% FBS, 1.71 µM	106	104	99.4
RPMI 5 mM glucose + 10% FBS, 5.12 µM	98.3	105	40.2
RPMI 5 mM glucose + 10% FBS, 15.4 µM	101	107	105
RPMI 5 mM glucose + 10% FBS, 46.1 µM	38.3	91.1	106
RPMI 5 mM glucose + 10% dialyzed FBS, 0.000781 µM	82.4	81.6	96.5
RPMI 5 mM glucose + 10% dialyzed FBS, 0.00234 µM	101	92	90.9
RPMI 5 mM glucose + 10% dialyzed FBS, 0.00702 µM	94.5	93	89.7
RPMI 5 mM glucose + 10% dialyzed FBS, 0.0211 µM	103	96.7	90
RPMI 5 mM glucose + 10% dialyzed FBS, 0.0632 µM	98.1	100	83.6
RPMI 5 mM glucose + 10% dialyzed FBS, 0.19 µM	87.1	98.7	105
RPMI 5 mM glucose + 10% dialyzed FBS, 0.569 µM	98.9	103	88.1
RPMI 5 mM glucose + 10% dialyzed FBS, 1.71 µM	103	94.3	91
RPMI 5 mM glucose + 10% dialyzed FBS, 5.12 µM	101	102	62.3
RPMI 5 mM glucose + 10% dialyzed FBS, 15.4 µM	106	90.4	102
RPMI 5 mM glucose + 10% dialyzed FBS, 46.1 µM	74.7	99.4	102

CCN1\C=C(\C(O)=O)C(=O)C2=C1N=C(N3CCNCC3)C(=C2)F
AUC of viability dose-response curve
Conditions	NOMO1 [2]	P12-Ichikawa [3]	SEM cells [1]
HPLM + 10% dialyzed FBS	343	430	385
RPMI 5 mM glucose + 10% FBS	380	386	407
RPMI 5 mM glucose + 10% dialyzed FBS	361	396	409

cell viability [%]
Conditions	NOMO1 [5]	P12-Ichikawa [6]	SEM cells [4]
HPLM + 10% dialyzed FBS, 0.000781 µM	74.8	75.4	58.6
HPLM + 10% dialyzed FBS, 0.00234 µM	73.4	89.2	79.7
HPLM + 10% dialyzed FBS, 0.00702 µM	85.3	85.8	68.2
HPLM + 10% dialyzed FBS, 0.0211 µM	93	94.9	87.3
HPLM + 10% dialyzed FBS, 0.0632 µM	88.6	91.8	84.8
HPLM + 10% dialyzed FBS, 0.19 µM	82.2	93.7	92.3
HPLM + 10% dialyzed FBS, 0.569 µM	86.2	94.1	84.8
HPLM + 10% dialyzed FBS, 1.71 µM	84.3	91.9	88.5
HPLM + 10% dialyzed FBS, 5.12 µM	46	91.4	84.2
HPLM + 10% dialyzed FBS, 15.4 µM	42	92.2	81
HPLM + 10% dialyzed FBS, 46.1 µM	20.3	84.1	68
RPMI 5 mM glucose + 10% FBS, 0.000781 µM	78	72.1	77.9
RPMI 5 mM glucose + 10% FBS, 0.00234 µM	83.9	82.1	102
RPMI 5 mM glucose + 10% FBS, 0.00702 µM	93	76	72
RPMI 5 mM glucose + 10% FBS, 0.0211 µM	83.8	86.3	82
RPMI 5 mM glucose + 10% FBS, 0.0632 µM	81.1	80.7	92.5
RPMI 5 mM glucose + 10% FBS, 0.19 µM	85.1	81.6	84.5
RPMI 5 mM glucose + 10% FBS, 0.569 µM	79	79.4	92.8
RPMI 5 mM glucose + 10% FBS, 1.71 µM	86.4	78.4	81.9
RPMI 5 mM glucose + 10% FBS, 5.12 µM	81.4	85.7	86
RPMI 5 mM glucose + 10% FBS, 15.4 µM	79.1	83.6	89.6
RPMI 5 mM glucose + 10% FBS, 46.1 µM	16	81	77.4
RPMI 5 mM glucose + 10% dialyzed FBS, 0.000781 µM	55.2	74.1	74.9
RPMI 5 mM glucose + 10% dialyzed FBS, 0.00234 µM	91	82.6	86.8
RPMI 5 mM glucose + 10% dialyzed FBS, 0.00702 µM	81.6	77.7	71.2
RPMI 5 mM glucose + 10% dialyzed FBS, 0.0211 µM	82.5	90.3	90.4
RPMI 5 mM glucose + 10% dialyzed FBS, 0.0632 µM	79.2	84.1	78.1
RPMI 5 mM glucose + 10% dialyzed FBS, 0.19 µM	74.1	76.9	84
RPMI 5 mM glucose + 10% dialyzed FBS, 0.569 µM	82.6	88.7	90.5
RPMI 5 mM glucose + 10% dialyzed FBS, 1.71 µM	82.5	83.3	93.9
RPMI 5 mM glucose + 10% dialyzed FBS, 5.12 µM	81	77.2	81.5
RPMI 5 mM glucose + 10% dialyzed FBS, 15.4 µM	76.3	83.4	103
RPMI 5 mM glucose + 10% dialyzed FBS, 46.1 µM	20.1	95.1	87.8

Reference: the supplement of paper PMC11451515
